Patent US20100267561A1, “HERBICIDAL PYRIDAZINONE DERIVATIVES” (priority 2007, published 2010)

Legend:
Experiment in all cases: Test B pre-/postemergence plant response
Assay type in all cases: in vivo
[1] = test system: Italian ryegrass (Lolium multiflorum)
Source text: (§1) Seeds of plant species selected from blackgrass (Alopecurus myosuroides), downy bromegrass (Bromus tectorum), green foxtail (Setaria viridis), Italian ryegrass (Lolium multiflorum), wheat (Triticum aestivum), wild oat (Avena fatua), catchweed bedstraw (Galium aparine), bermudagrass (Cynodon dactylon), surinam grass (Brachiaria decumbens), cocklebur (Xanthium strumarium), corn (Zea mays), large crabgrass (Digitaria sanguinalis), woolly cupgrass (Eriochloa villosa), giant foxtail (Setaria faberii), goosegrass (Eleusine indica), johnsongrass (Sorghum halepense), kochia (Kochia scoparia), lambsquarters (Chenopodium album), morningglory (Ipomoea coccinea), eastern black (E.B.) nightshade (Solanum ptycanthum), yellow nutsedge (Cyperus esculentus), pigweed (Amaranthus retroflexus), common ragweed (Ambrosia elation), Russian thistle (Salsola iberica), soybean (Glycine max), common (oilseed) sunflower (Helianthus annuus), and velvetleaf (Abutilon theophrasti) were planted and treated preemergence with test chemicals formulated in a non-phytotoxic solvent mixture which included a surfactant.
(§2) At the same time, plants selected from these crop and weed species and also winter barley (Hordeum vulgare), canarygrass (Phalaris minor), chickweed (Stellaria media) and windgrass (Apera spica-venti) were treated with postemergence applications of some of the test chemicals formulated in the same manner. Plants ranged in height from 2 to 18 cm (1- to 4-leaf stage) for postemergence treatments.
(§3) Plant species in the flooded paddy test consisted of rice (Oryza sativa), umbrella sedge (Cyperus difformis), ducksalad (Heteranthera limosa) and barnyardgrass (Echinochloa crus-galli) grown to the 2-leaf stage for testing. At time of treatment, test pots were flooded to 3 cm above the soil surface, treated by application of test compounds directly to the paddy water, and then maintained at that water depth for the duration of the test. Treated plants and controls were maintained in a greenhouse for 13 to 15 days, after which time all species were compared to controls and visually evaluated. Plant response ratings, summarized in Table B, are based on a scale of 0 to 100 where 0 is no effect and 100 is complete control. A dash (-) response means no test result.

[2] = test system: Russian thistle (Salsola iberica); details: Preemergence
Source text: as §1, §2, §3

[3] = test system: bermudagrass (Cynodon dactylon)
Source text: as §1, §2, §3

[4] = test system: cocklebur (Xanthium strumarium)
Source text: as §1, §2, §3

[5] = test system: common ragweed (Ambrosia elation)
Source text: as §1, §2, §3

[6] = test system: goosegrass (Eleusine indica)
Source text: as §1, §2, §3

[7] = test system: lambsquarters (Chenopodium album)
Source text: as §1, §2, §3

[8] = test system: large crabgrass (Digitaria sanguinalis)
Source text: as §1, §2, §3

soybean (Glycine max) = test system: soybean (Glycine max)
Source text: as §1, §2, §3

[9] = test system: velvetleaf (Abutilon theophrasti)
Source text: as §1, §2, §3

[10] = 8 g ai/ha, postemergence, 0-100 scale
[11] = 16 g ai/ha, postemergence, 0-100 scale
[12] = Postemergence, 31 g ai/ha, scale 0 to 100
[13] = Postemergence, 62 g ai/ha, scale 0 to 100, 0 no effect, 100 complete control
[14] = Preemergence, 8 g ai/ha, scale 0 to 100 (0 no effect, 100 complete control)
[15] = Preemergence, 31 g ai/ha, scale 0 to 100 (0 no effect, 100 complete control)
[16] = Preemergence, 62 g ai/ha, 0 to 100 scale, 0 no effect, 100 complete control
[17] = Preemergence, 16 g ai/ha, scale 0 to 100

For COc1nn(C)c(=O)c(-n2nc(-c3ccc(Br)cc3)cc2C)c1O [Compound 82], the “Ryegrass, Italian plant response rating” value [1, 10] was 98, the “Ryegrass, Italian plant response rating” value [1, 11] was 98 and the “Plant response rating, Ryegrass, Italian” value [1, 12] was 100. For the same compound, the “Plant response rating, Ryegrass, Italian” value [1, 13] was 100, the “Ryegrass, Italian plant response rating” value [1, 14] was 40 and the “Plant response rating, Ryegrass, Italian” value [1, 15] was 100. For the same compound, the “Plant response rating, Ryegrass, Italian” value [1, 16] was 100, the “Ryegrass, Italian plant response rating” value [1, 17] was 98 and the “Russian Thistle plant response rating” value ([2]; 8 g ai/ha, scale 0 to 100 (0 no effect, 100 complete control)) was 0. The “Plant response rating, Russian Thistle” value ([2]; 31 g ai/ha, scale 0 to 100 (0 no effect, 100 complete control)) was 0, the “Plant response rating, Russian Thistle” value ([2]; 62 g ai/ha, 0 to 100 scale, 0 no effect, 100 complete control) was 0 and the “Russian Thistle plant response rating” value ([2]; 16 g ai/ha, scale 0 to 100) was 0. For the same compound, the “Bermudagrass plant response rating” value [3, 10] was 98, the “Bermudagrass plant response rating” value [3, 11] was 100 and the “Plant response rating, Bermudagrass” value [3, 12] was 100. The “Plant response rating, Bermudagrass” value [3, 13] was 100, the “Bermudagrass plant response rating” value [3, 14] was 90 and the “Bermudagrass plant response rating” value ([3]; Preemergence, 16 g ai/ha, scale 0 to 100 (0 no effect, 100 complete control)) was 100. The “Plant response rating, Bermudagrass” value [3, 15] was 100, the “Plant response rating, Bermudagrass” value [3, 16] was 100 and the “Cocklebur plant response rating” value [4, 10] was 0. For the same compound, the “Cocklebur plant response rating” value [4, 11] was 0, the “Plant response rating, Cocklebur” value [4, 12] was 0 and the “Plant response rating, Cocklebur” value [4, 13] was 20. For the same compound, the “Cocklebur plant response rating” value [4, 14] was 0, the “Plant response rating, Cocklebur” value [4, 15] was 0 and the “Plant response rating, Cocklebur” value [4, 16] was 35. The “Cocklebur plant response rating” value [4, 17] was 0, the “Ragweed plant response rating” value [5, 10] was 20 and the “Ragweed plant response rating” value [5, 11] was 40. The “Plant response rating, Ragweed” value [5, 12] was 65, the “Plant response rating, Ragweed” value [5, 13] was 85 and the “Ragweed plant response rating” value [5, 14] was 0. For the same compound, the “Plant response rating, Ragweed” value [5, 15] was 50, the “Plant response rating, Ragweed” value [5, 16] was 80 and the “Ragweed plant response rating” value [5, 17] was 20. For the same compound, the “Goosegrass plant response rating” value [6, 10] was 60, the “Goosegrass plant response rating” value [6, 11] was 65 and the “Plant response rating, Goosegrass” value [6, 12] was 85. For the same compound, the “Plant response rating, Goosegrass” value [6, 13] was 90, the “Goosegrass plant response rating” value [6, 14] was 95 and the “Plant response rating, Goosegrass” value [6, 15] was 98. For the same compound, the “Plant response rating, Goosegrass” value [6, 16] was 100, the “Goosegrass plant response rating” value [6, 17] was 98 and the “Lambsquarters plant response rating” value [7, 10] was 0. The “Lambsquarters plant response rating” value [7, 11] was 0, the “Plant response rating, Lambsquarters” value [7, 12] was 0 and the “Plant response rating, Lambsquarters” value [7, 13] was 0. For the same compound, the “Lambsquarters plant response rating” value [7, 14] was 0, the “Plant response rating, Lambsquarters” value [7, 15] was 100 and the “Plant response rating, Lambsquarters” value [7, 16] was 100. For the same compound, the “Lambsquarters plant response rating” value [7, 17] was 0, the “Crabgrass, Large plant response rating” value [8, 10] was 100 and the “Crabgrass, Large plant response rating” value [8, 11] was 100. The “Plant response rating, Crabgrass, Large” value [8, 12] was 100, the “Plant response rating, Crabgrass, Large” value [8, 13] was 100 and the “Crabgrass, Large plant response rating” value [8, 14] was 95. The “Plant response rating, Crabgrass, Large” value [8, 15] was 100, the “Plant response rating, Crabgrass, Large” value [8, 16] was 100 and the “Crabgrass, Large plant response rating” value [8, 17] was 98. The “Soybean plant response rating” value (soybean (Glycine max); [10]) was 0, the “Soybean plant response rating” value (soybean (Glycine max); [11]) was 45 and the “Plant response rating, Soybean” value (soybean (Glycine max); [12]) was 55. The “Plant response rating, Soybean” value (soybean (Glycine max); [13]) was 70, the “Soybean plant response rating” value (soybean (Glycine max); [14]) was 0 and the “Plant response rating, Soybean” value (soybean (Glycine max); [15]) was 20. For the same compound, the “Plant response rating, Soybean” value (soybean (Glycine max); [16]) was 100, the “Soybean plant response rating” value (soybean (Glycine max); [17]) was 0 and the “Velvetleaf plant response rating” value [9, 10] was 0. For the same compound, the “Velvetleaf plant response rating” value [9, 11] was 0, the “Plant response rating, Velvetleaf” value [9, 12] was 0 and the “Plant response rating, Velvetleaf” value [9, 13] was 55. The “Velvetleaf plant response rating” value [9, 14] was 0, the “Plant response rating, Velvetleaf” value [9, 15] was 45 and the “Plant response rating, Velvetleaf” value [9, 16] was 75. The “Velvetleaf plant response rating” value [9, 17] was 0.
